Experiments:
Type in all cases: functional
Echinochloa crus-galli [1] = test: Post-emergence herbicidal activity against Echinochloa crus-galli (barnyard grass) assessed as growth inhibition at 1500 ai g/ha after 20 days by green house test
Echinochloa crus-galli [2] = test: Pre-emergence herbicidal activity against Echinochloa crus-galli (barnyard grass) assessed as growth inhibition at 1500 ai g/ha after 20 days by green house test
Medicago sativa [3] = test: Pre-emergence herbicidal activity against Medicago sativa (alfalfa) assessed as growth inhibition at 1500 ai g/ha after 20 days by green house test
[4] = tested on: Brassica rapa subsp. oleifera; test: Pre-emergence herbicidal activity against Brassica rapa subsp. oleifera Si Yue Man assessed as growth inhibition at 1500 ai g/ha after 20 days by green house test
Digitaria sanguinalis [5] = test: Pre-emergence herbicidal activity against Digitaria sanguinalis (hairy crabgrass) assessed as growth inhibition at 1500 ai g/ha after 20 days by green house test
Amaranthus retroflexus [6] = test: Pre-emergence herbicidal activity against Amaranthus retroflexus assessed as growth inhibition at 1500 ai g/ha after 20 days by green house test
Amaranthus retroflexus [7] = test: Post-emergence herbicidal activity against Amaranthus retroflexus assessed as growth inhibition at 1500 ai g/ha after 20 days by green house test
Digitaria sanguinalis [8] = test: Post-emergence herbicidal activity against Digitaria sanguinalis (hairy crabgrass) assessed as growth inhibition at 1500 ai g/ha after 20 days by green house test
Medicago sativa [9] = test: Post-emergence herbicidal activity against Medicago sativa (alfalfa) assessed as growth inhibition at 1500 ai g/ha after 20 days by green house test
[10] = tested on: Brassica rapa subsp. oleifera; test: Post-emergence herbicidal activity against Brassica rapa subsp. oleifera Si Yue Man assessed as growth inhibition at 1500 ai g/ha after 20 days by green house test

Measured: growth inhibition (GI)

COP(=O)(OC)C(OC(=O)COc1ccc(C(F)(F)F)cc1)c1cccc([N+](=O)[O-])c1 (stereo not given)
50%: Amaranthus retroflexus [7]
<=50%: all other assays above

COP(=O)(OC)C(C)OC(=O)COc1ccc(F)cc1Cl (stereo not given)
75%: Echinochloa crus-galli [1] | Digitaria sanguinalis [8]
90%: all other assays above

COP(=O)(OC)C(C)OC(=O)COc1ccc(F)cc1 (stereo not given)
50%: Amaranthus retroflexus [6] | Medicago sativa [9] | [10]
75%: Medicago sativa [3] | [4] | Amaranthus retroflexus [7]
90%: Digitaria sanguinalis [5]
<=50%: all other assays above

COP(=O)(OC)C(C)OC(=O)COc1ccc(F)cc1F (stereo not given)
75%: Digitaria sanguinalis [5] | Amaranthus retroflexus [7] | [10]
50%: Medicago sativa [3] | Digitaria sanguinalis [8] | Medicago sativa [9]
<=50%: all other assays above

COP(=O)(OC)C(OC(=O)COc1ccc(F)cc1Cl)c1ccccc1O (stereo not given)
50%: Echinochloa crus-galli [1] | Echinochloa crus-galli [2]
<=50%: Digitaria sanguinalis [8]
90%: all other assays above

COP(=O)(OC)C(OC(=O)COc1ccc(F)cc1F)c1cccc([N+](=O)[O-])c1 (stereo not given)
75%: Amaranthus retroflexus [7] | [10]
<=50%: Echinochloa crus-galli [1] | Echinochloa crus-galli [2] | [4] | Amaranthus retroflexus [6]
50%: all other assays above

COP(=O)(OC)C(OC(=O)COc1ccc([N+](=O)[O-])cc1)c1cccc([N+](=O)[O-])c1 (stereo not given)
<=50%: all assays above

COP(=O)(OC)C(OC(=O)COc1ccc(Cl)cc1)c1ccccc1O (stereo not given)
75%: Amaranthus retroflexus [7] | Medicago sativa [9] | [10]
50%: Digitaria sanguinalis [5]
90%: Medicago sativa [3]
<=50%: all other assays above

COP(=O)(OC)C(OC(=O)COc1ccc(C(F)(F)F)cc1[N+](=O)[O-])c1cccc([N+](=O)[O-])c1 (stereo not given)
<=50%: all assays above

COP(=O)(OC)C(OC(=O)COc1ccc(C)cc1)c1ccccc1 (stereo not given)
50%: Amaranthus retroflexus [7] | Medicago sativa [9] | [10]
75%: Medicago sativa [3] | [4] | Amaranthus retroflexus [6]
<=50%: all other assays above

COP(=O)(OC)C(OC(=O)COc1cccc(Cl)c1Cl)c1cccc([N+](=O)[O-])c1 (stereo not given)
<=50%: all assays above

— ChEMBL document CHEMBL3045592, “Studies of O,O-dimethyl α-(2,4-dichlorophenoxyacetoxy)ethylphosphonate (HW02) as a new herbicide. 1. Synthesis and herbicidal activity of HW02 and analogues as novel inhibitors of pyruvate dehydrogenase complex” (J Agric Food Chem, 2011)
